According to the Kinase Knowledgebase extract (Sharma et al. 2016):

What follows are molecules tested against PIK3CA (human) (UniProt P42336) (assay: Assessment of PIK3CA Kinase Activity).
Chain of PIK3CA (human) (P42336 whole entry, looked up): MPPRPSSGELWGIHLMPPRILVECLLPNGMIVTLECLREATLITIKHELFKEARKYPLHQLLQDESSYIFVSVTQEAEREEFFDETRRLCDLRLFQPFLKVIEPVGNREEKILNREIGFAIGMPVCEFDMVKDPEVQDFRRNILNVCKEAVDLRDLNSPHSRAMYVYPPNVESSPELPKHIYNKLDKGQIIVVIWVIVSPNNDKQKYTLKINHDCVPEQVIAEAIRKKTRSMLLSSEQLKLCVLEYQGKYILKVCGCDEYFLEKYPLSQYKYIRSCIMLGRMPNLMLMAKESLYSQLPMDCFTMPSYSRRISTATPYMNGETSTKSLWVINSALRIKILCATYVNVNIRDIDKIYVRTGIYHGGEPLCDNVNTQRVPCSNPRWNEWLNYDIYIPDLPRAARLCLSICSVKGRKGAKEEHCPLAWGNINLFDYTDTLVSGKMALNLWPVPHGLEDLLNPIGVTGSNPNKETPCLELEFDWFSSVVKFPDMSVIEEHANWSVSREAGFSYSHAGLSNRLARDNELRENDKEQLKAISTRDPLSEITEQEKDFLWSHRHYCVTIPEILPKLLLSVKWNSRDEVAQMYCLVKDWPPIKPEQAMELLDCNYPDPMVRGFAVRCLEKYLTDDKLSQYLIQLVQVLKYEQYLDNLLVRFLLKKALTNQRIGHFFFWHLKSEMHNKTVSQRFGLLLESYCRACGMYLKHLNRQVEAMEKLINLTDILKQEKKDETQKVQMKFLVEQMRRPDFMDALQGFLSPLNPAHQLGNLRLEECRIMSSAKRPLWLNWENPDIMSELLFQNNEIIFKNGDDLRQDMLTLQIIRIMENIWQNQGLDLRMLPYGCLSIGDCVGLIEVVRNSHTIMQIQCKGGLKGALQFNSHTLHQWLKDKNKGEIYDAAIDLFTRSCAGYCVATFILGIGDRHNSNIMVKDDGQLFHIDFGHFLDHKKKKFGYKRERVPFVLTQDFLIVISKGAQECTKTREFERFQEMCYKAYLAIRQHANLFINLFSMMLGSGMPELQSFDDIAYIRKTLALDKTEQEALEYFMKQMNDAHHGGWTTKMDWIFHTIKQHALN
For `Cc1noc(C)c1-c1ccc2c(N3CCOCC3)nc(-c3ccc(NC(=O)Nc4ccc(C(=O)N(C)C)c(F)c4)cc3)nc2c1`, the IC50 was 0.05 to 0.2 µM. In the case of `COc1cccc(-c2ccc3c(N4CCOCC4)nc(-c4ccc(NC(=O)Nc5ccc(C(=O)N(C)C)cc5)cc4)nc3c2)c1`, the IC50 is reported as 0.05 to 0.2 µM. `CN1CCN(C(=O)c2ccc(NC(=O)Nc3ccc(-c4nc(N5CCOCC5)c5ccc(-c6ccncc6)cc5n4)cc3)cc2)CC1` showed an IC50 of under 0.05 µM. `CN(C)C(=O)c1ccc(NC(=O)Nc2ccc(-c3nc(N4CCOCC4)c4ccc(-c5cccnc5F)cc4n3)cc2)cc1` was tested, and the IC50 was 0.05 to 0.2 µM. Molecule `CN(C)[C@H]1CCN(C(=O)c2ccc(NC(=O)Nc3ccc(-c4nc(N5CCOCC5)c5ccc(C(C)(C)O)cc5n4)cc3)cc2)C1` has an IC50 of 0.05 to 0.2 µM. Molecule `CN(C)CCN(C)C(=O)c1ccc(NC(=O)Nc2ccc(-c3nc(N4CCOCC4)c4ccc(-c5ccco5)cc4n3)cc2)cc1` has an IC50 of under 0.05 µM. `CN(C)C(=O)c1ccc(NC(=O)Nc2ccc(-c3nc(N4CCOCC4)c4ncc(-c5cccnc5)cc4n3)c(F)c2)cc1` was tested, and the IC50 was under 0.05 µM. With `CN(C)C(=O)c1ccc(NC(=O)Nc2ccc(-c3nc(N4CCOCC4)c4ncc(-c5cccnc5)cc4n3)cc2)c(F)c1` the IC50 was under 0.05 µM. Work on `CN(C)C(=O)c1ccc(NC(=O)Nc2ccc(-c3nc(N4CCOCC4)c4ccc(-c5cccc(CO)c5)cc4n3)cc2)cc1` yielded an IC50 of under 0.05 µM. Work on `Cc1ccc(-c2ccc3c(N4CCOCC4)nc(-c4ccc(NC(=O)Nc5ccc(C(=O)N6CC[C@@H](N(C)C)C6)cc5)cc4)nc3c2)o1` yielded an IC50 of 0.05 to 0.2 µM. In the case of `COc1ncc(-c2ccc3c(N4CCOCC4)nc(-c4ccc(NC(=O)Nc5ccc(C(=O)N(C)C)cc5)cc4)nc3c2)cn1`, the IC50 is reported as under 0.05 µM. `CN(C)C(=O)c1ccc(NC(=O)Nc2ccc(-c3nc(N4CCOCC4)c4ccc(-c5ccc(CO)o5)cc4n3)cc2)c(F)c1` gave an IC50 of under 0.05 µM. Work on `CN(C)C(=O)c1ccc(NC(=O)Nc2ccc(-c3nc(N4CCOCC4)c4ccc(-c5cccc(S(C)(=O)=O)c5)cc4n3)cc2)cn1` yielded an IC50 of 0.05 to 0.2 µM. `CN(C)C(=O)c1ccc(NC(=O)Nc2ccc(-c3nc(N4CCOCC4)c4ncc(-c5cccnc5F)cc4n3)cc2)cc1` showed an IC50 of under 0.05 µM. `CN(C)C(=O)c1ccc(NC(=O)Nc2ccc(-c3nc(N4CCOCC4)c4ccc(-c5ccccn5)cc4n3)c(F)c2)cc1` was tested, and the IC50 was under 0.05 µM. `CC(O)c1ccc(-c2ccc3c(N4CCOCC4)nc(-c4ccc(NC(=O)Nc5ccc(C(=O)N(C)C)cc5)cc4)nc3c2)o1` (configuration not stated) was tested, and the IC50 was under 0.05 µM. For `CN1CCN(C(=O)c2ccc(NC(=O)Nc3ccc(-c4nc(N5CCOCC5)c5ccc(-c6ccco6)cc5n4)cc3)cc2)CC1`, the IC50 was under 0.05 µM. `CN(C)C(=O)c1ccc(NC(=O)Nc2ccc(-c3nc(N4CCOCC4)c4ccc(-c5cnc(O)nc5)cc4n3)cc2)cc1` was tested, and the IC50 was under 0.05 µM. Work on `CN(C)C(=O)c1ccc(NC(=O)Nc2ccc(-c3nc(N4CCOCC4)c4ccc(-c5ccc(CO)o5)cc4n3)cc2F)cc1` yielded an IC50 of under 0.05 µM. `COc1ncc(-c2cnc3c(N4CCOCC4)nc(-c4ccc(NC(=O)Nc5ccc(C(=O)N(C)C)cc5F)cc4)nc3c2)cn1` was tested, and the IC50 was under 0.05 µM. `CN(C)C(=O)c1ccc(NC(=O)Nc2ccc(-c3nc(N4CCOCC4)c4ncc(-c5cncnc5)cc4n3)cc2F)cc1` gave an IC50 of under 0.05 µM. For `CN(C)C(=O)c1ccc(NC(=O)Nc2ccc(-c3nc(N4CCOCC4)c4ccc(-c5cccnc5)cc4n3)c(F)c2)cc1`, the IC50 was under 0.05 µM. In the case of `Cc1noc(C)c1-c1cc2nc(-c3ccc(NC(=O)Nc4ccc(C(=O)N(C)C)cc4)cc3)nc(N3CCOCC3)c2cc1F`, the IC50 is reported as 0.05 to 0.2 µM. In the case of `CNC(=O)c1ccc(NC(=O)Nc2ccc(-c3nc(N4CCOCC4)c4ncc(-c5cnn(C)c5)cc4n3)cc2)cc1`, the IC50 is reported as under 0.05 µM. `CN1CCN(C(=O)c2ccc(NC(=O)Nc3ccc(-c4nc(N5CCOCC5)c5cc(F)c(-c6cccnc6)cc5n4)cc3F)cc2)CC1` was tested, and the IC50 was under 0.05 µM. In the case of `Cc1ccc(-c2ccc3c(N4CCOCC4)nc(-c4ccc(NC(=O)Nc5ccc(C(=O)N(C)C)c(F)c5)cc4)nc3c2)o1`, the IC50 is reported as 0.05 to 0.2 µM. `CN(C)C(=O)c1ccc(NC(=O)Nc2ccc(-c3nc(N4CCOCC4)c4ccc(-c5cccc(O)c5)cc4n3)cc2)cc1` gave an IC50 of under 0.05 µM. With `CNC(=O)c1ccc(NC(=O)Nc2ccc(-c3nc(N4CCOCC4)c4ccc(-c5ccc(C)o5)cc4n3)cc2)cc1` the IC50 was 0.05 to 0.2 µM. With `COc1cccc(-c2ccc3c(N4CCOCC4)nc(-c4ccc(NC(=O)Nc5ccc(C(=O)N(C)C)cc5)cc4)nc3c2)n1` the IC50 was 0.05 to 0.2 µM. Molecule `CN(C)C(=O)c1ccc(NC(=O)Nc2ccc(-c3nc(N4CCOCC4)c4ccc(-c5ccc(C#N)o5)cc4n3)c(F)c2)cc1` has an IC50 of under 0.05 µM. `COc1ncc(-c2ccc3c(N4CCOCC4)nc(-c4ccc(NC(=O)Nc5ccc(C(=O)N(C)C)cc5)cc4F)nc3c2)cn1` gave an IC50 of under 0.05 µM. `CN(C)C(=O)c1ccc(NC(=O)Nc2ccc(-c3nc(N4CCOCC4)c4ccc(-c5cccc(S(C)(=O)=O)c5)cc4n3)cc2F)cn1` gave an IC50 of under 0.05 µM. Work on `CN(C)C(=O)c1ccc(NC(=O)Nc2ccc(-c3nc(N4CCOCC4)c4cc(F)c(-c5cccnc5)cc4n3)cn2)cc1` yielded an IC50 of under 0.05 µM. Molecule `CN(C)C(=O)c1ccc(NC(=O)Nc2ccc(-c3nc(N4CCOCC4)c4ncc(-c5cccnc5)cc4n3)cc2)cc1` has an IC50 of under 0.05 µM. Work on `CN(C)C(=O)c1ccc(NC(=O)Nc2ccc(-c3nc(N4CCOCC4)c4ncc(-c5cnn(C)c5)cc4n3)cc2)cc1` yielded an IC50 of under 0.05 µM. `Cc1ccc(-c2ccc3c(N4CCOCC4)nc(-c4ccc(NC(=O)Nc5ccc(C(=O)N(C)C)cc5)nc4)nc3c2)o1` was tested, and the IC50 was under 0.05 µM. `Cc1ncccc1-c1ccc2c(N3CCOCC3)nc(-c3ccc(NC(=O)Nc4ccc(C(=O)N(C)C)cc4)cc3)nc2c1` gave an IC50 of under 0.05 µM. In the case of `CN(C)C(=O)c1ccc(NC(=O)Nc2ccc(-c3nc(N4CCOCC4)c4ccc(-c5cnn(C)c5)cc4n3)cn2)cc1`, the IC50 is reported as under 0.05 µM. Molecule `CN(C)CCN(C)C(=O)c1ccc(NC(=O)Nc2ccc(-c3nc(N4CCOCC4)c4ccc(-c5cncnc5)cc4n3)cc2)cc1` has an IC50 of under 0.05 µM. For `N[C@H]1CCN(C(=O)c2ccc(NC(=O)Nc3ccc(-c4nc(N5CCOCC5)c5ccc(-c6cncnc6)cc5n4)cc3F)cc2)C1`, the IC50 was under 0.05 µM. Molecule `CN(C)CCN(C)C(=O)c1ccc(NC(=O)Nc2ccc(-c3nc(N4CCOCC4)c4ccc(-c5ccncc5)cc4n3)cc2)cc1` has an IC50 of under 0.05 µM. `Cn1cc(-c2cnc3c(N4CCOCC4)nc(-c4ccc(NC(=O)Nc5ccc(C(N)=O)cc5)cc4)nc3c2)cn1` was tested, and the IC50 was under 0.05 µM. `Cc1ccc(-c2ccc3c(N4CCOCC4)nc(-c4ccc(NC(=O)Nc5ccc(C(=O)N(C)C)cc5)cc4)nc3c2)cn1` was tested, and the IC50 was under 0.05 µM. For `CN(C)C(=O)c1ccc(NC(=O)Nc2ccc(-c3nc(N4CCOCC4)c4ccc(-c5cncnc5)cc4n3)cn2)c(F)c1`, the IC50 was under 0.05 µM. In the case of `CN(C)[C@@H]1CCN(C(=O)c2ccc(NC(=O)Nc3ccc(-c4nc(N5CCOCC5)c5ncc(-c6cnn(C)c6)cc5n4)cc3)cc2)C1`, the IC50 is reported as under 0.05 µM. `COc1ncc(-c2ccc3c(N4CCOCC4)nc(-c4ccc(NC(=O)Nc5ccc(C(=O)N(C)C)cc5)c(F)c4)nc3c2)cn1` gave an IC50 of 0.05 to 0.2 µM. In the case of `CN(C)C(=O)c1ccc(NC(=O)Nc2ccc(-c3nc(N4CCOCC4)c4ccc(-c5ccco5)cc4n3)cc2)c(F)c1`, the IC50 is reported as under 0.05 µM. `N[C@@H]1CCN(C(=O)c2ccc(NC(=O)Nc3ccc(-c4nc(N5CCOCC5)c5ccc(-c6cncnc6)cc5n4)cc3)cc2)C1` showed an IC50 of under 0.05 µM. `CN(C)C(=O)c1ccc(NC(=O)Nc2ccc(-c3nc(N4CCOCC4)c4cc(F)c(-c5cccnc5F)cc4n3)cn2)cc1` showed an IC50 of under 0.05 µM. Molecule `CN(C)C(=O)c1ccc(NC(=O)Nc2ccc(-c3nc(N4CCOCC4)c4ccc(-c5ccc(C(=O)O)o5)cc4n3)cc2)cc1` has an IC50 of under 0.05 µM. `CN(C)C(=O)c1ccc(NC(=O)Nc2ccc(-c3nc(N4CCOCC4)c4ccc(-c5ccnnc5)cc4n3)cc2)cc1` showed an IC50 of 0.05 to 0.2 µM. `CN(C)C(=O)c1ccc(NC(=O)Nc2ccc(-c3nc(N4CCOCC4)c4ccc(-c5cccs5)cc4n3)cc2)cc1` showed an IC50 of under 0.05 µM. `CN(C)C(=O)c1ccc(NC(=O)Nc2ccc(-c3nc(N4CCOCC4)c4ccc(-c5cnc(N(C)C)nc5)cc4n3)c(F)c2)cc1` was tested, and the IC50 was under 0.05 µM. Molecule `CN(C)CCn1cc(-c2ccc3c(N4CCOCC4)nc(-c4ccc(NC(=O)Nc5ccc(C(=O)N(C)C)cc5)cc4)nc3c2)cn1` has an IC50 of 0.05 to 0.2 µM. In the case of `COc1ncccc1-c1ccc2c(N3CCOCC3)nc(-c3ccc(NC(=O)Nc4ccc(C(=O)N(C)C)cc4)cc3)nc2c1`, the IC50 is reported as under 0.05 µM. `Cc1noc(C)c1-c1ccc2c(N3CCOCC3)nc(-c3ccc(NC(=O)Nc4ccc(C(=O)N5CC[C@H](N(C)C)C5)cc4)cc3)nc2c1` showed an IC50 of 0.05 to 0.2 µM. Molecule `CN(C)C(=O)c1ccc(NC(=O)Nc2ccc(-c3nc(N4CCOCC4)c4ccc(-c5ccccn5)cc4n3)cc2)c(F)c1` has an IC50 of under 0.05 µM. Molecule `CN(C)C1CCN(C(=O)c2ccc(NC(=O)Nc3ccc(-c4nc(N5CCOCC5)c5ncc(-c6cnn(C)c6)cc5n4)cc3)cc2)CC1` has an IC50 of under 0.05 µM. Molecule `CN(C)C(=O)c1ccc(NC(=O)Nc2ccc(-c3nc(N4CCOCC4)c4ccc(-c5ccccn5)cc4n3)cc2)cc1` has an IC50 of under 0.05 µM. With `CN(C)C(=O)c1ccc(NC(=O)Nc2ccc(-c3nc(N4CCOCC4)c4ccc(-c5cnn(C)c5)cc4n3)cc2F)cc1` the IC50 was under 0.05 µM. `CN(C)C(=O)c1ccc(NC(=O)Nc2ccc(-c3nc(N4CCOCC4)c4ccc(-c5cccnc5)cc4n3)cc2)cc1` showed an IC50 of under 0.05 µM. For `COc1ncc(-c2ccc3c(N4CCOCC4)nc(-c4ccc(NC(=O)Nc5ccc(C(=O)N(C)C)cc5)nc4)nc3c2)cn1`, the IC50 was under 0.05 µM. Molecule `CS(=O)(=O)c1cccc(-c2ccc3c(N4CCOCC4)nc(-c4ccc(NC(=O)Nc5ccc(C(N)=O)cc5)cc4)nc3c2)c1` has an IC50 of 0.05 to 0.2 µM. `CN(C)C(=O)c1ccc(NC(=O)Nc2ccc(-c3nc(N4CCOCC4)c4ccc(-c5ccc(N)nc5)cc4n3)cc2)cc1` was tested, and the IC50 was under 0.05 µM. In the case of `CN(C)CCNC(=O)c1ccc(NC(=O)Nc2ccc(-c3nc(N4CCOCC4)c4ccc(-c5cncnc5)cc4n3)cc2F)cc1`, the IC50 is reported as under 0.05 µM. Molecule `Cc1ccc(-c2ccc3c(N4CCOCC4)nc(-c4ccc(NC(=O)Nc5ccc(C(=O)N6CCC(O)C6)cc5)cc4)nc3c2)o1` (configuration not stated) has an IC50 of under 0.05 µM. In the case of `CN(C)C(=O)c1ccc(NC(=O)Nc2ccc(-c3nc(N4CCOCC4)c4ccc(-c5cncnc5)cc4n3)c(F)c2)cc1`, the IC50 is reported as under 0.05 µM. Molecule `Cc1noc(C)c1-c1ccc2c(N3CCOCC3)nc(-c3ccc(NC(=O)Nc4ccc(C(=O)N5CC[C@H](N(C)C)C5)cc4)c(F)c3)nc2c1` has an IC50 of 0.05 to 0.2 µM. `CN(C)C(=O)c1ccc(NC(=O)Nc2ccc(-c3nc(N4CCOCC4)c4ncc(-c5cnn(C)c5)cc4n3)cc2F)cc1` gave an IC50 of under 0.05 µM. For `CN(C)C(=O)c1ccc(NC(=O)Nc2ccc(-c3nc(N4CCOCC4)c4cc(F)c(-c5cncc(S(C)(=O)=O)c5)cc4n3)cc2)cc1`, the IC50 was under 0.05 µM. `CN(C)C(=O)c1ccc(NC(=O)Nc2ccc(-c3nc(N4CCOCC4)c4ccc(-c5ccoc5)cc4n3)cc2)cc1` showed an IC50 of 0.05 to 0.2 µM. With `Cc1ccc(-c2ccc3c(N4CCOCC4)nc(-c4ccc(NC(=O)Nc5ccc(C(=O)N(C)C)nc5)c(F)c4)nc3c2)o1` the IC50 was 0.05 to 0.2 µM.
